Measured values: ChEMBL document CHEMBL5620378, “Structure-based discovery of novel cruzain inhibitors with distinct trypanocidal activity profiles” (Eur J Med Chem, 2023)
Calls of active or inactive are those of the source. No cut-off for these calls is given here.

Key:
[1] = target: Cruzipain (Trypanosoma cruzi) (UniProt P25779); assay: Inhibition of C-terminal truncated Trypanosoma cruzi Tulahuen Cruzain using Z-FR-AMC as substrate at 100 uM measured for 5 mins by fluorescence based analysis
Sequence of Cruzipain (Trypanosoma cruzi) (P25779 123-467 limits assumed): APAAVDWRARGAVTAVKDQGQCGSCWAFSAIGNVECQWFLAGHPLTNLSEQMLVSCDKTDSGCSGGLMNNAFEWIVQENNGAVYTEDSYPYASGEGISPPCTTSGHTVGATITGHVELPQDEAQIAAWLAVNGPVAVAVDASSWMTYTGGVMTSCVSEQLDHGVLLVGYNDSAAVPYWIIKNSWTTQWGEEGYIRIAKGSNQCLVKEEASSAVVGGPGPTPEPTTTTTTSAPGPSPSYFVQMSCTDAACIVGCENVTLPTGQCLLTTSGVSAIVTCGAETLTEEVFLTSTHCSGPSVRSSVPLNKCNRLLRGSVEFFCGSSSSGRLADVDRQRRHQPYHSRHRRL

Cruzipain [2] = target: T1, Cruzipain (Trypanosoma cruzi, UniProt P25779); assay: Inhibition of C-terminal truncated Trypanosoma cruzi Tulahuen Cruzain using Z-FR-AMC as substrate measured for 5 mins by fluorescence based analysis
T1 sequence (P25779 whole entry, the tested form may be a part): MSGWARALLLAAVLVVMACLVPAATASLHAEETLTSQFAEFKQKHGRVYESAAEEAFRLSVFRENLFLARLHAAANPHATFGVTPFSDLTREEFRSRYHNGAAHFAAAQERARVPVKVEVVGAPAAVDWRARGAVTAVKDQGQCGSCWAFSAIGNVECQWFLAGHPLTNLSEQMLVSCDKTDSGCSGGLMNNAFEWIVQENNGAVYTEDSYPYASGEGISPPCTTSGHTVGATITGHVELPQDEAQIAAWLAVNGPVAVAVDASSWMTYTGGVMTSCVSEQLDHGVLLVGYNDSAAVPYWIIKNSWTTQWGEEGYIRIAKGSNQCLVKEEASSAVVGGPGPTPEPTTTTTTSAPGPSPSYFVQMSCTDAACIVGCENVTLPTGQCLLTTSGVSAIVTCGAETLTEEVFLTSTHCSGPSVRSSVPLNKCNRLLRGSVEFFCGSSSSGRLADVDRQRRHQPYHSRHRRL

[3] = target: Cruzipain (Trypanosoma cruzi) (UniProt P25779); assay: Competitive inhibition of C-terminal truncated Trypanosoma cruzi Tulahuen Cruzain assessed as increase in Km(app) using Z-FR-AMC as substrate by Michaelis-menten based analysis
Cruzipain [4] = target: T1, Cruzipain; assay: Competitive inhibition of C-terminal truncated Trypanosoma cruzi Tulahuen Cruzain using Z-FR-AMC as substrate by Michaelis-menten based analysis
[5] = target: Cruzipain (Trypanosoma cruzi) (UniProt P25779); assay: Competitive inhibition of C-terminal truncated Trypanosoma cruzi Tulahuen Cruzain assessed as constant Vmax using Z-FR-AMC as substrate by Lineweaver-Burk plot analysis
[6] = target: Cruzipain (Trypanosoma cruzi) (UniProt P25779); assay: Ratio of IC50 for inhibition of C-terminal truncated Trypanosoma cruzi Tulahuen Cruzain in presence of different concentrations of Triton to IC50 for inhibition of C-terminal truncated Trypanosoma cruzi Tulahuen Cruzain
[7] = target: Cruzipain (Trypanosoma cruzi) (UniProt P25779); assay: Ratio of IC50 for inhibition of C-terminal truncated Trypanosoma cruzi Tulahuen Cruzain in presence of 0% Triton and BSA to IC50 for inhibition of C-terminal truncated Trypanosoma cruzi Tulahuen Cruzain
Cathepsin L = Cathepsin L (Homo sapiens, UniProt P07711); assay: Inhibition of human recombinant Cathepsin L (18 to 333 residues) assessed as residual activity using Z-FR-AMC as substrate at 100 uM measured for 5 mins by fluorescence based analysis; details: recombinant human Cathepsin L (residues 18 to 333), probe Z-FR-AMC, read-out: Activity
Sequence of Cathepsin L (P07711 whole entry, the tested form may be a part): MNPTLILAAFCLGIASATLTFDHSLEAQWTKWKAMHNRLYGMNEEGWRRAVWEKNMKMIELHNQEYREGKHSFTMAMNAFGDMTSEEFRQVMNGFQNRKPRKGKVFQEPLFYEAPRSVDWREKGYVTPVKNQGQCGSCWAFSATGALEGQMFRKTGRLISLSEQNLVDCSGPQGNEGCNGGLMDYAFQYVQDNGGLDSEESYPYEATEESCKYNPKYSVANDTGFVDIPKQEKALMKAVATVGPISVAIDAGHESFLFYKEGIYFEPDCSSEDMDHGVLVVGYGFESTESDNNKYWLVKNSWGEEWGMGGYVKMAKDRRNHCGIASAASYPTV

Trypanosoma cruzi [8] = assay: Trypanocidal activity against Trypanosoma cruzi Y infected in C57BL/6 mouse Peritoneal macrophages assessed as reduction in trypomastigotes release at 6.25 uM measured on day 5 post-infection; type: functional; details: Peritoneal macrophage, 120 h, time 5 day
Trypanosoma cruzi [9] = assay: Trypanocidal activity against Trypanosoma cruzi Y infected in C57BL/6 mouse Peritoneal macrophages assessed as reduction in trypomastigotes release at 100 uM measured on day 5 post-infection; type: functional; details: Peritoneal macrophage, 120 h, time 5 day
Peritoneal macrophage [10] = assay: Cytotoxicity against C57BL/6 mouse Peritoneal macrophages assessed as cell damage at 0.19 to 400 uM measured after 24 hrs by LDH assay; type: toxicity, cell-based; details: dose 0.19-400 µM
Peritoneal macrophage [11] = assay: Cytotoxicity against C57BL/6 mouse Peritoneal macrophages infected with Trypanosoma cruzi Y assessed as cell damage at 0.19 to 400 uM measured after 24 hrs by LDH assay; type: toxicity, cell-based; details: dose 0.19-400 µM
Peritoneal macrophage [12] = assay: Effect on NO release in C57BL/6 mouse Peritoneal macrophages infected with Trypanosoma cruzi Y measured at 11 days post-infection by Griess reagent based assay; type: functional, cell-based; details: time 11.0 day
Trypanosoma cruzi [13] = assay: Trypanocidal activity against trypomastigote form of Trypanosoma cruzi Y assessed as reduction in parasite load at 6.25 uM incubated for 1 hr; type: functional
Trypanosoma cruzi [14] = assay: Trypanocidal activity against trypomastigote form of Trypanosoma cruzi Y infected in C57BL/6 mouse Peritoneal macrophages assessed as reduction in intracellular parasite infection at 0.19 to 400 uM preincubated with parasite for 1 hr followed by infection and measured at 3 to 11 days post-infection; type: functional, organism-based; details: Peritoneal macrophage, dose 0.19-400 µM, time 3-11 day
Trypanosoma cruzi [15] = assay: Trypanocidal activity against epimastigotes form of Trypanosoma cruzi Y assessed as parasite viability by MTT assay; type: functional, organism-based
Trypanosoma cruzi [16] = assay: Trypanocidal activity against epimastigotes form of Trypanosoma cruzi Y assessed as decrease in parasite growth at 200 uM pretreated for 1 hr followed by drug wash-out and measured after 72 hrs by optical microscopic analysis; type: functional
Trypanosoma cruzi [17] = assay: Trypanocidal activity against epimastigotes form of Trypanosoma cruzi Y assessed as decrease in parasite growth at 25 uM measured after 72 hrs by optical microscopic analysis; type: functional
Trypanosoma cruzi [18] = assay: Trypanocidal activity against epimastigotes form of Trypanosoma cruzi Y assessed as decrease in parasite growth at 400 uM measured after 72 hrs by optical microscopic analysis; type: functional
[19] = target: Cruzipain (Trypanosoma cruzi) (UniProt P25779); assay: Inhibition of C-terminal truncated Trypanosoma cruzi Tulahuen Cruzain using Z-FR-AMC as substrate at 100 uM preincubated with enzyme for 10 mins and measured for 5 mins by fluorescence based analysis; details: time 15.0 min

`Cc1ccc(CNC(=O)[C@@H]2Cc3ccccc3CN2)o1` was tested, and the inhibition [1] was 8%.
In the case of `Cc1ccc(CNC(=O)[C@H]2Cc3ccccc3CN2)o1`, the inhibition [1] is reported as 4%.
For `O=C(NCc1ccco1)C1Cc2c(F)cccc2CN1` (racemic), the IC50 (Cruzipain [2]) was 26 µM, the inhibition [3] was “Active” and the Ki (Cruzipain [4]) was 27 µM. The inhibition [5] was “Active”, the inhibition [1] was 100% and the Ratio IC50 [6] was 6. It also gave a Ratio IC50 [7] of 10, an activity at 5 min, 100 µM (Cathepsin L) of 65% and an inhibition at 6.25 µM (Trypanosoma cruzi [8]) of 51%. The inhibition at 100 µM (Trypanosoma cruzi [9]) was 74%, the Activity (Peritoneal macrophage [10]) was “Non-Toxic” and the Activity (Peritoneal macrophage [11]) was “Non-Toxic”. The Activity (Peritoneal macrophage [12]) was “inactive”, the inhibition at 6.25 µM (Trypanosoma cruzi [13]) was 39% and the Activity (Trypanosoma cruzi [14]) was “Active”. For the same compound, the Activity (Trypanosoma cruzi [15]) was “inactive”, the inhibition at 200 µM (Trypanosoma cruzi [16]) was 12% and the inhibition at 25 µM (Trypanosoma cruzi [17]) was 6%. For the same compound, the inhibition at 400 µM (Trypanosoma cruzi [18]) was 23%.
`Cc1ccc(CNC(=O)C2Cc3ccc(F)cc3C(=O)O2)o1` (configuration not stated) was tested, and the inhibition [1] was 13%.
`O=C(NCc1ccco1)[C@@H]1Cc2ccccc2CO1` showed an inhibition [1] of 25%.
Compound `O=C(NCc1ccccn1)C1Cc2ccccc2CN1` (configuration not stated) has an inhibition [1] of 7%.
For `O=C(NCc1ccco1)C1Cc2ccccc2CN1` (racemic), the inhibition [19] was 100%, the IC50 (Cruzipain [2]) was 3 µM and the inhibition [3] was “Active”. The Ki (Cruzipain [4]) was 4.6 µM, the inhibition [5] was “Active” and the inhibition [1] was 100%. The Ratio IC50 [6] was 3, the Ratio IC50 [7] was 7 and the activity at 5 min, 100 µM (Cathepsin L) was 51%. The inhibition at 6.25 µM (Trypanosoma cruzi [8]) was 18%, the inhibition at 100 µM (Trypanosoma cruzi [9]) was 25% and the Activity (Peritoneal macrophage [10]) was “Non-Toxic”. The Activity (Peritoneal macrophage [11]) was “Non-Toxic”, the Activity (Peritoneal macrophage [12]) was “inactive” and the inhibition at 6.25 µM (Trypanosoma cruzi [13]) was 13%. For the same compound, the Activity (Trypanosoma cruzi [15]) was “inactive”, the inhibition at 200 µM (Trypanosoma cruzi [16]) was 20% and the inhibition at 25 µM (Trypanosoma cruzi [17]) was 43%.
